Laboratory results published in patent US20120189758A1, “Flavour Enhancement” (priority 2009, published 2012).

Experiments:
[1] = Taste comparison of model savoury base, GABA solution and base plus GABA (Example 2); settings: 4 experienced tasters; base: 5000 ppm table salt, 150 ppm MSG, 75 ppm IMP/GMP; GABA 10 ppm
Protocol: A model savoury solution containing 5000 ppm table salt, 150 ppm MSG and 75 ppm IMP/GMP was used as a base.
Another solution was prepared containing 10 ppm GABA.
In a third solution, 10 ppm GABA was added to the base solution.
The solutions were compared by a small group of experienced tasters (3 male, 1 female).
The base solution was described as salty and umami. The GABA solution was tasteless. All members of the group preferred the third solution over the first one and judged to be noticeably different from the base.

[2] = GABA concentration series in reference savoury solution, tasted for umami enhancement (Example 4); settings: 5000 ppm table salt, 15 ppm MSG, 75 ppm IMP/GMP
Protocol: A reference solution containing 5000 ppm table salt, 15 ppm MSG and 75 ppm IMP/GMP was prepared. To different parts of this solution 5, 10, 15, 20, and 25 ppm GABA was added. The solutions were tasted by a small group of experienced tasters (3 male, 1 female). […] 15 ppm of GABA was the flavoured sample in comparison to the target.

For NCCCC(=O)O [GABA, γ-amino butyric acid], the taste description [1] was “tasteless” and the “GABA concentration of the flavoured (favoured) sample in comparison to the target” value [2] was 15 ppm.
